Measurements reported in patent US20230136824A1, “N-N-[…] (DMT) AND DMT ANALOG COMPOSITIONS, METHODS OF MAKING, AND METHODS OF USE THEREOF” (ATAI Life Sciences AG, priority 2021, published 2023).
In brackets after ≈: the same amount, converted by molar mass.

How the values were obtained:
[1] = Forced degradation study of DMT under stress conditions (HPLC); assay type: physicochemical; conditions: for % Assay: exposure overnight
Method: A forced degradation study of DMT was performed under different stress conditions and samples are analyzed using HPLC.
It is important to incorporate antioxidant(s) in the formulation to prevent oxidation of DMT during the shelf life and to form stable films.

[2] = Solubility of buccal film and neat API in Phosphate buffer saline pH 6.8; assay type: physicochemical
[3] = DMT solubility in various solvents (super saturated mixture, HPLC); assay type: physicochemical
Excerpt: Solubility studies of DMT have been carried out in various solvents by preparing super saturated mixture and analyzed using HPLC.
This warrants a strong need for improvement solubility of DMT API in the film formulation for better bioavailability.

[4] = Ex-vivo permeation through porcine buccal mucosa (Franz diffusion cell); assay type: in vitro ADME; conditions: 180 minutes, phosphate buffered solution 0.01M pH=7
Method: Further, permeability of DMT through prepared films were evaluated using ex-vivo permeation study i.e., using porcine buccal mucosa as presented below. Ex-vivo permeation is well studied using Franz diffusion cell or Using chambers utilizing animal mucosa (e.g., Pig or sheep buccal mucosa) or by using commercially available synthetic membranes (e.g., Permeapad®). The Franz diffusion cell consists of two compartments; one is the donor compartment, the other is the receptor compartment of 18 mL capacity and having 0.785 cm^2 effective diffusion area. The temperature is maintained at 37° C. by water jacket. […]
Further, all prepared films are evaluated for the permeability through pig buccal mucosa and compared against the permeability of API dispersion in PBS pH 7.0 as presented in FIG. 6. In one aspect, the present invention involves a DMT polymeric film that releases about 5% or less DMT in 60 minutes, about 15% DMT or less in 180 minutes when measured through pig mucosa in phosphate buffered solution 0.01M pH=7, as shown in FIG. 6.
Further, permeability of DMT through prepared films were evaluated using ex-vivo permeation study i.e., porcine buccal mucosa or Permeapad® as presented below.

[5] = Physicochemical constants of DMT (log P, pKa, glass transition temperature); conditions: amorphous N,N-DMT
Excerpt: DMT free base is a lipophilic molecule (log P−2.573) with a small backbone (Mol wt. 188.27 g/mol).
The pH of the film plays a very important role in balancing its ionized vs unionized form at the site. In the present invention microenvironmental pH is maintained to achieve balance between ionized and unionized form and thus the permeation across the mucosa.

[6] = pH of the donor chamber media in permeation study; assay type: physicochemical; conditions: PBS pH 7.0
[7] = Excipient compatibility of DMT binary mixtures at 50° C./75% RH (HPLC impurity levels); assay type: physicochemical
Method: Further, several excipients for formulating transmucosal films with desired properties have been analyzed for compatibility with DMT at 50° C./75% RH utilizing HPLC method to detect impurity levels.

With `CN(C)CCc1c[nH]c2ccccc12` [DMT, N, N-Dimethyltryptamine] the “Oxidation upon force degradation study” value [1] was “highly prone to oxidation”, the “% Assay” value ([1]; 0.1N HCl) was 99.7% and the “% Assay” value ([1]; 0.1N NaOH) was 99.4%. For the same molecule, the “% Assay” value ([1]; 3% peroxide) was 26.6%, the “% Assay” value ([1]; 70° C.) was 98.5% and the solubility [2] was 2.3 mg/mL (≈ 12.2 mM). The solubility ([3]; Saliva Buffer (pH 6.8)) was 2.3 mg/mL (≈ 12.2 mM), the solubility ([3]; acetone) was over 126 mg/mL and the solubility ([3]; acetonitrile) was over 94 mg/mL. It also gave a solubility ([3]; ethanol) of over 98 mg/mL, a solubility ([3]; isopropyl alcohol water) of over 98 mg/mL and a solubility ([3]; methanol) of over 98 mg/mL. The solubility ([3]; methanol:water (50:50)) was 26 mg/mL (≈ 138 mM), the solubility ([3]; methanol:water (70:30)) was over 50 mg/mL and the solubility ([3]; methyl isobutyl ketone) was over 90 mg/mL. The solubility ([3]; p-dioxane) was over 104 mg/mL, the solubility ([3]; tetrahydrofuran) was over 106 mg/mL and the solubility ([3]; water) was under 1 mg/mL. The “DMT released through pig mucosa” value [4] was “about 33%”, the Glass transition temperature [5] was −18 °C and the “pH of the donor chamber media” value [6] was 9.5. For the same molecule, the “No. of Impurities” value [7] was 6 and the “Total Impurities %” value [7] was 2.17%.
